Assay results taken from the NIST ThermoML archive (doi:10.1007/s10765-010-0874-x).

Experiments:
[1] = xn = mol fraction of the nth substance listed; conditions: 101 kPa, Liquid; for speed of sound: Sing-around technique in a fixed-path interferometer
[2] = 101 kPa, Liquid; for speed of sound: Sing-around technique in a fixed-path interferometer

CCCCCCO [hexan-1-ol] + ClCCCl
[1], x2 = 0
Conditions | mass density [kg/m3] | speed of sound [m/s]
293.15 K | 818.856 | 1320.1
298.15 K | 815.281 | 1303.2

ClCCCl [1,2-dichloroethane]
[2]
Conditions | mass density [kg/m3] | speed of sound [m/s]
293.15 K | 1252.77 | 1212.9
298.15 K | 1245.56 | 1193.6

CCCCCCO [hexan-1-ol]
[2]
Conditions | mass density [kg/m3] | speed of sound [m/s]
293.15 K | 818.856 | 1320.1
298.15 K | 815.281 | 1303.2

ClC(Cl)=C(Cl)Cl [tetrachloroethene] + CCCCCCO
[1]
Conditions | mass density, 293.15 K [kg/m3] | mass density, 298.15 K [kg/m3] | speed of sound, 293.15 K [m/s] | speed of sound, 298.15 K [m/s]
x1 = 0.0688 | 864.637 | 860.792 | 1292 | 1274.5
x1 = 0.123 | 901.521 | 897.46 | 1270.8 | 1253.7
x1 = 0.2457 | 987.759 | 983.18 | 1226.3 | 1209.5
x1 = 0.3618 | 1072.99 | 1067.89 | 1188.2 | 1171.6
x1 = 0.4502 | 1140.46 | 1134.94 | 1161.5 | 1144.9
x1 = 0.5583 | 1226.3 | 1220.26 | 1131.5 | 1115.1
x1 = 0.6518 | 1303.62 | 1297.1 | 1108.3 | 1092
x1 = 0.7068 | 1350.53 | 1343.73 | 1095.8 | 1079.5
x1 = 0.7419 | 1381.18 | 1374.19 | 1088.4 | 1072
x1 = 0.7797 | 1414.65 | 1407.46 | 1080.9 | 1064.6
x1 = 0.8315 | 1461.44 | 1453.97 | 1071.4 | 1055.6
x1 = 0.8718 | 1498.8 | 1491.15 | 1064.7 | 1049
x1 = 0.9179 | 1542.25 | 1534.33 | 1058.2 | 1043.3
x1 = 0.9504 | 1573.61 | 1565.56 | 1055 | 1041.2
x1 = 1 | 1622.74 | 1614.43 | 1054 | 1039

BrCCBr [1,2-dibromoethane]
[2]
Conditions | mass density [kg/m3] | speed of sound [m/s]
293.15 K | 2179.59 | 1007
298.15 K | 2169.14 | 994.27

ClC(Cl)=C(Cl)Cl [tetrachloroethene]
[2]
Conditions | mass density [kg/m3] | speed of sound [m/s]
293.15 K | 1622.74 | 1054
298.15 K | 1614.43 | 1039

ClCCCl [1,2-dichloroethane] + CCCCCCO
[1]
Conditions | mass density, 293.15 K [kg/m3] | mass density, 298.15 K [kg/m3] | speed of sound, 293.15 K [m/s] | speed of sound, 298.15 K [m/s]
x1 = 0.037 | 828.769 | 825.105 | 1313.2 | 1296.2
x1 = 0.0769 | 839.847 | 836.074 | 1305.3 | 1288.2
x1 = 0.1499 | 860.583 | 856.62 | 1291.7 | 1274.3
x1 = 0.2147 | 879.725 | 875.586 | 1279.7 | 1262.2
x1 = 0.2935 | 904.954 | 900.591 | 1265.2 | 1248
x1 = 0.3952 | 940.475 | 935.784 | 1247.7 | 1230
x1 = 0.4532 | 962.107 | 957.223 | 1238.5 | 1220.7
x1 = 0.5596 | 1005.05 | 999.79 | 1222.8 | 1206
x1 = 0.6113 | 1027.55 | 1022.09 | 1216.7 | 1199.8
x1 = 0.6971 | 1067.98 | 1062.14 | 1207.9 | 1189.7
x1 = 0.7791 | 1111.06 | 1104.85 | 1202.3 | 1184.3
x1 = 0.8563 | 1155.16 | 1148.59 | 1200.7 | 1182.8
x1 = 0.9335 | 1205.43 | 1198.46 | 1205.4 | 1184.3
x1 = 0.979 | 1236.99 | 1229.8 | 1211.8 | 1187.7
x1 = 1 | 1252.77 | 1245.56 | 1212.9 | 1193.6

BrCCBr [1,2-dibromoethane] + CCCCCCO
[1]
Conditions | mass density, 293.15 K [kg/m3] | mass density, 298.15 K [kg/m3] | speed of sound, 293.15 K [m/s] | speed of sound, 298.15 K [m/s]
x1 = 0.0402 | 856.608 | 852.83 | 1296.7 | 1280
x1 = 0.0682 | 883.413 | 879.495 | 1281 | 1264.4
x1 = 0.1276 | 941.916 | 937.69 | 1249.4 | 1233.1
x1 = 0.2056 | 1022.36 | 1017.7 | 1211.2 | 1195.3
x1 = 0.2686 | 1090.47 | 1085.45 | 1182.9 | 1167.3
x1 = 0.3892 | 1228.97 | 1223.2 | 1135.2 | 1120.2
x1 = 0.4277 | 1276.43 | 1270.41 | 1121.2 | 1106.3
x1 = 0.5444 | 1427.13 | 1420.31 | 1083.6 | 1069.2
x1 = 0.6405 | 1562 | 1554.45 | 1057.4 | 1043.6
x1 = 0.7326 | 1701.64 | 1693.37 | 1036.5 | 1023.1
x1 = 0.8519 | 1899.69 | 1890.44 | 1016.8 | 1004
x1 = 0.9273 | 2036.52 | 2026.66 | 1009.9 | 997.38
x1 = 0.9587 | 2096.51 | 2086.4 | 1008.3 | 995.92
x1 = 0.9782 | 2135.29 | 2125.02 | 1007.4 | 994.76
x1 = 1 | 2179.59 | 2169.14 | 1007 | 994.27

CCCCCCO [hexan-1-ol] + ClC(Cl)=C(Cl)Cl
[1], x2 = 0
Conditions | mass density [kg/m3] | speed of sound [m/s]
293.15 K | 818.856 | 1320.1
298.15 K | 815.281 | 1303.2

CCCCCCO [hexan-1-ol] + BrCCBr
[1], x2 = 0
Conditions | mass density [kg/m3] | speed of sound [m/s]
293.15 K | 818.856 | 1320.1
298.15 K | 815.281 | 1303.2
